Assay results reported in patent publication US20240218019A1, “METHODS AND COMPOSITIONS COMPRISING MHC CLASS I PEPTIDES” (BOARD OF REGENTS, THE UNIVERSITY OF TEXAS SYSTEM, priority 2021, published 2024).

Test system: healthy donor PBMCs
Assay: IFNγ ELISpot assay with peptide-stimulated healthy donor PBMCs
Assay type: cell-based, human
Procedure: FIG. 10A-D. In vitro validation of predicted neoAgs immunogenicity using ELISpot IFNy assay. A) Schematic of peptide pool, stimulation, and cell culture workflow for ELISpot assays. PBMCs were exposed with the individual peptides from the immunogenic pools in the presence of IL-7 for 3 d, followed by expansion of neoAg-specific T cells in the presence of IL-2. On day 13, expanded cells (10^5 cells per well) were plated onto 96-well ELISpot plate coated with an IFNγ antibody and re-stimulated with the respective peptide for 24 h. IFNy secreting cells were analyzed as spot-forming units (SFUs), and the inventors chose ≥15 SFU produced by peptide stimulated cells over DMSO control cells as an indicator of the peptide immunogenicity. B) Quantification of IFNγ-secreting cells (SFU) obtained from ELISpot assay of 12 neoAg-stimulated PBMCs. ConcA and DMSO served as positive and negative controls. […] C) Selection of 110 predicted MHC-I neoAgs from 3 different categories and percentage of immunogenicity in vitro validation. […] “Most Immunogenic” refers to neoAgs selected from the top 100 prediction list of Most Immunogenic MHC-I neoAgs. “Most recurrent” refers to neoAgs selected from the top 100 prediction list of Most Recurrent MHC-I neoAgs. “Others” refers neoAgs that were predicted to have low immunogenicity and no recurrency. A total of 44 MHC-II neoAgs from 2 different categories were tested. […] “Most Immunogenic” refers to neoAgs selected from the top 100 prediction list of Most Immunogenic MHC-II neoAgs. “Most recurrent” refers to neoAgs selected from the top 100 prediction list of Most Recurrent MHC-II neoAgs. D) pMHC-pentamer staining. Expanded Pan-T cells from the healthy human donor were isolated and stained with WDTC1 neoAg peptide/A*02:01 Pentameric complexes and PerCP-conjugated CD8 antibody followed by flow cytometry analysis. Pan T-cells from healthy human donor PBMC (HLA-A*02:01) were isolated using negative magnetic selection. Isolated Pan T cells were stimulated and expanded with Opto-antigen presenting beads conjugated with WDTC1 neoAg-peptide. Viable Pan-T cells were gated based on FSC and SSC scatter and SYTOX Blue dead cells staining after doublet-exclusion. Flow cytometric plots representing CD8 positive (x-axis) and PE-biotin-pMHC-pentamer positive (y-axis) cells; unstained, unstimulated, and WDTC1 Opto-antigen presenting beads stimulated cells (left to right). The percentage of live CD8+ cells and CD8/WDTC1 neoAg-loaded MHC pentamer positive cells are shown.
FIG. 19A-B. In vitro validation of the pooled predicted neoAgs immunogenicity using ELISpot IFNγ assay. A) Schematic of peptide pool, stimulation, and cell culture workflow for ELISpot assays. All 154 peptides were grouped into 15 peptide pools to stimulate PBMCs from 3 healthy human donors as shown in the illustrations. IFNy secreting cells were analyzed as spot-forming units (SFUs), indicative of immunogenicity. B) Quantification of IFNγ-secreting cells (SFU) obtained from ELISpot assay. Pools 2, 3, 5, 6, 9, and 12 produced at least 15 or higher SFU/10^5 cells from two different PBMCs. […] ConcA and DMSO served as positive and negative controls.
Healthy donor PBMCs were stimulated with 15 peptide pools (Supplementary Table 13) to expand the neoAg-specific CD8^+ T-cells followed by quantitative ELISpot assays (FIG. 19A) to measure immunogenicity. […] To ascertain the immunogenicity of individual peptides within each immunogenic pool. a deconvolution protocol (see Methods) was implemented (FIG. 10A). […] Three percent of MHC-I neoAgs not predicted to be highly immunogenic or recurrent (Others). 5% of the top 100 most immunogenic MHC-II predicted neoags, and 6% of the top 100 most recurrent MHC-II predicted neoags elicited an immunogenic response as assessed by ELISpot assays. Additionally. 18% of all of these elispot-reactive neoags were also predicted from the validation set (FIG. 9C). […]

[1] = IFNγ ELISpot, peptide-stimulated healthy donor PBMCs
[2] = IFNγ ELISpot, healthy donor PBMCs stimulated with peptide pools
[3] = IFNγ ELISpot, peptide-stimulated healthy donor PBMCs, peptides grouped in 15 pools
[4] = IFNγ ELISpot, only peptides marked Tested
[5] = IFNγ secretion in healthy donor PBMCs vs unexposed control cells
[6] = IFNγ ELISpot, peptides marked Tested

Sequence: LAYWEKREAW [compound 177]
- ELISPOT result (positive Yes/No) for peptides marked Tested [1]: No

Sequence: LEVMLLNMGYRITGL
- Elispot reactive [2]: yes

Sequence: LKLCSKVSF [compound 132]
- ELISPOT result (positive Yes/No) for peptides marked Tested [1]: No

Sequence: LLNPVTMNK [compound 204]
- Elispot reactive (IFNγ ELISpot, peptide tested): No

Sequence: LLNPVTMNKA
- Elispot reactive [3]: yes

Sequence: LLNPVTMNKA [compound 206]
- Elispot reactive (IFNγ ELISpot, peptide tested): No

Sequence: LSAPEKITLF [compound 20]
- Elispot reactive [4]: Yes
- ELISPOT result (positive Yes/No) for peptides marked Tested [1]: Yes
- Elispot reactive [5]: Yes

Sequence: LSNVAPPAF
- Elispot reactive [3]: yes

Sequence: LSNVAPPAF [compound 168]
- ELISPOT result (positive Yes/No) for peptides marked Tested [1]: Yes
- Elispot reactive [5]: Yes

Sequence: LSSPFREQM [compound 38]
- Elispot reactive [4]: No
- ELISPOT result (positive Yes/No) for peptides marked Tested [1]: No

Sequence: LSSWFSPTV [compound 139]
- ELISPOT result (positive Yes/No) for peptides marked Tested [1]: No

Sequence: LTFCTNATI [compound 200]
- Elispot reactive (IFNγ ELISpot, peptide tested): No

Sequence: LTHPAHQPL [compound 124]
- Elispot reactive [6]: No

Sequence: MLLELSPAQL [compound 216]
- Elispot reactive (IFNγ ELISpot, peptide tested): No

Sequence: MLLRLNLRK [compound 29]
- Elispot reactive [4]: Yes
- ELISPOT result (positive Yes/No) for peptides marked Tested [1]: Yes
- Elispot reactive [5]: Yes

Sequence: MPCFTTALLL [compound 155]
- ELISPOT result (positive Yes/No) for peptides marked Tested [1]: No

Sequence: MSSIWGTMF [compound 140]
- ELISPOT result (positive Yes/No) for peptides marked Tested [1]: No

Sequence: MYFFWPCSL [compound 174]
- ELISPOT result (positive Yes/No) for peptides marked Tested [1]: No

Sequence: NMIQVLMSV [compound 49]
- ELISPOT result for peptides marked Tested with ELISPOT (Yes/No) [1]: No

Sequence: QKKLMLLRLNLRKMC
- Elispot reactive [3]: yes

Sequence: QTIEERLTW
- Elispot reactive [3]: yes

Sequence: QTIEERLTW [compound 156]
- ELISPOT result (positive Yes/No) for peptides marked Tested [1]: Yes
- Elispot reactive [5]: Yes

Sequence: RAWRAGMPL [compound 153]
- ELISPOT result (positive Yes/No) for peptides marked Tested [1]: No

Sequence: RAWRRFPLL [compound 118]
- Elispot reactive [6]: No

Sequence: RFCPASCSGCY
- Elispot reactive [3]: yes

Sequence: RFCPASCSGCY [compound 170]
- ELISPOT result (positive Yes/No) for peptides marked Tested [1]: No

Sequence: RIPAVLRTEGEPLHT
- Elispot reactive [3]: yes

Sequence: RIPAVLRTEGEPLHT [compound 323]
- Elispot reactive [6]: Yes
- Elispot reactive [5]: Yes

Sequence: RLDKGNFAGA
- Elispot reactive [3]: yes

Sequence: RLDKGNFAGA [compound 215]
- Elispot reactive (IFNγ ELISpot, peptide tested): No

Sequence: RLSCAPPPI
- Elispot reactive [3]: yes

Sequence: RLSCAPPPI [compound 138]
- ELISPOT result (positive Yes/No) for peptides marked Tested [1]: Yes
- Elispot reactive [5]: Yes

Sequence: RLYKYDHNFV [compound 213]
- Elispot reactive (IFNγ ELISpot, peptide tested): No

Sequence: RLYVPLYSSK
- Elispot reactive [3]: yes

Sequence: RLYVPLYSSK [compound 37]
- Elispot reactive [4]: Yes
- ELISPOT result (positive Yes/No) for peptides marked Tested [1]: Yes
- Elispot reactive [5]: Yes

Sequence: RMASTSCAA [compound 161]
- ELISPOT result (positive Yes/No) for peptides marked Tested [1]: No

Sequence: RPACTCISM [compound 97]
- ELISPOT result (positive Yes/No) for peptides marked Tested [1]: No
- ELISPOT positive (only neoAgs marked Tested with ELISPOT): No

Sequence: RPLCSSLGPL [compound 15]
- Elispot reactive (IFNγ ELISpot, peptide tested): No

Sequence: RPRMRAASPL [compound 13]
- Elispot reactive (IFNγ ELISpot, peptide tested): No

Sequence: RPVRGRGSL [compound 14]
- Elispot reactive (IFNγ ELISpot, peptide tested): No

Sequence: RQMLPTLSTL [compound 214]
- Elispot reactive (IFNγ ELISpot, peptide tested): No

Sequence: RRPLRSWTPR [compound 152]
- ELISPOT result (positive Yes/No) for peptides marked Tested [1]: No

Sequence: RSAFPSRSL [compound 126]
- Elispot reactive [6]: No
- Elispot reactive (IFNγ ELISpot, only peptides marked Elispot tested = Yes): No

Sequence: RSVLEEMGL [compound 58]
- ELISPOT result (positive Yes/No) for peptides marked Tested [1]: No
- ELISPOT result for peptides marked Tested with ELISPOT (Yes/No) [1]: No

Sequence: RTHPYSPKK [compound 171]
- ELISPOT result (positive Yes/No) for peptides marked Tested [1]: No

Sequence: RTLLVTCILY [compound 125]
- Elispot reactive [6]: No

Sequence: RTRSAWGDW [compound 141]
- ELISPOT result (positive Yes/No) for peptides marked Tested [1]: No

Sequence: RVPAHASTSI
- Elispot reactive [3]: yes

Sequence: RVPAHASTSL [compound 27]
- Elispot reactive [4]: Yes
- Elispot reactive [6]: Yes
- Elispot reactive [5]: Yes

Sequence: RWMVLRNSWRAVARM
- Elispot reactive [3]: yes

Sequence: SELLNPVTMNK [compound 205]
- Elispot reactive (IFNγ ELISpot, peptide tested): No

Sequence: SINVLCVRASLIEKL
- Elispot reactive [2]: yes

Sequence: SLINLTWTA
- Elispot reactive [3]: yes

Sequence: SLINLTWTA [compound 66]
- ELISPOT result for peptides marked Tested with ELISPOT (Yes/No) [1]: No

Sequence: SLVRLSSCVPV [compound 4]
- Elispot reactive (IFNγ ELISpot, peptide tested): No

Sequence: SLWSSMPHGV [compound 23]
- Elispot reactive [4]: Yes
- Elispot reactive [5]: Yes

Sequence: SMAASPSPK [compound 179]
- ELISPOT result (positive Yes/No) for peptides marked Tested [1]: No

Sequence: SMMPPPPAL [compound 2]
- Elispot reactive (IFNγ ELISpot, peptide tested): No

Sequence: SPAIPPRPL
- Elispot reactive [3]: yes

Sequence: SPAIPPRPL [compound 7]
- Elispot reactive (IFNγ ELISpot, peptide tested): No

Sequence: SPMITRIL [compound 210]
- Elispot reactive (IFNγ ELISpot, peptide tested): No

Sequence: SPPLHLCQPL [compound 95]
- ELISPOT result (positive Yes/No) for peptides marked Tested [1]: No
- ELISPOT result for peptides marked Tested with ELISPOT (Yes/No) [1]: No

Sequence: SPSRSTTAPV [compound 134]
- ELISPOT result (positive Yes/No) for peptides marked Tested [1]: No

Sequence: SQKNITPAI [compound 122]
- Elispot reactive [6]: No

Sequence: SQNWGSLPL [compound 164]
- ELISPOT result (positive Yes/No) for peptides marked Tested [1]: No

Sequence: SQVWTAATLR [compound 115]
- Elispot reactive [6]: No

Sequence: SWMGGLHSFY [compound 121]
- Elispot reactive [6]: No

Sequence: TAPVASASPKL [compound 17]
- Elispot reactive (IFNγ ELISpot, peptide tested): No

Sequence: TPMHSLLIS [compound 212]
- Elispot reactive (IFNγ ELISpot, peptide tested): No

Sequence: TPMHSLLISPM [compound 211]
- Elispot reactive (IFNγ ELISpot, peptide tested): No

Sequence: TPQDSRQVL [compound 117]
- Elispot reactive [6]: No

Sequence: TPRKLVGRAV [compound 162]
- ELISPOT result (positive Yes/No) for peptides marked Tested [1]: No

Sequence: TQLARFFPI
- Elispot reactive [3]: yes

Sequence: TQLARFFPI [compound 24]
- experimental validation of the neoAg, Yes/NA: Yes
- Elispot reactive [4]: Yes
- Elispot reactive [6]: Yes
- Elispot reactive [5]: Yes

Sequence: TSSPRTMSW [compound 120]
- Elispot reactive [6]: No

Sequence: VGMRETTGL [compound 119]
- Elispot reactive [6]: No

Sequence: VLEDTLLKI
- Elispot reactive [3]: yes

Sequence: VLEDTLLKI [compound 158]
- ELISPOT result (positive Yes/No) for peptides marked Tested [1]: Yes
- Elispot reactive [5]: Yes

Sequence: VMANVLTLNL
- Elispot reactive [3]: yes

Sequence: VMANVLTLNL [compound 157]
- ELISPOT result (positive Yes/No) for peptides marked Tested [1]: Yes
- Elispot reactive [5]: Yes

Sequence: VPACSHVPM [compound 202]
- Elispot reactive (IFNγ ELISpot, peptide tested): No

Sequence: VPTWSARLL [compound 203]
- Elispot reactive (IFNγ ELISpot, peptide tested): No

Sequence: VSNIAQAPLY [compound 172]
- ELISPOT result (positive Yes/No) for peptides marked Tested [1]: No

Sequence: VVHKKRGLF [compound 127]
- Elispot reactive [6]: No

Sequence: WLPKMPPFV
- Elispot reactive [3]: yes

Sequence: WLPKMPPFV [compound 163]
- ELISPOT result (positive Yes/No) for peptides marked Tested [1]: Yes
- Elispot reactive [5]: Yes

Sequence: WSWCGTSQTY [compound 136]
- ELISPOT result (positive Yes/No) for peptides marked Tested [1]: Yes
- Elispot reactive [5]: Yes

Sequence: YLFAKAYLV [compound 201]
- Elispot reactive (IFNγ ELISpot, peptide tested): No

Sequence: YLGTPTWNC
- Elispot reactive [3]: yes

Sequence: YLGTPTWNC [compound 151]
- ELISPOT result (positive Yes/No) for peptides marked Tested [1]: Yes
- Elispot reactive [5]: Yes

Sequence: YMMDDLELI [compound 1]
- Elispot reactive [4]: No

Sequence: YVAIRPLPY [compound 173]
- ELISPOT result (positive Yes/No) for peptides marked Tested [1]: No
